# Patent US10138466B2, “Compositions and methods for differentiating stem cells into cell populations comprising beta-like cells” (REGENERATIVE MEDICAL SOLUTIONS, INC., priority 2014, dated 2018)
# Assays:
# differentiated cells = assay: GSIS test of differentiated cells with Warfarin in stage 6 medium; type: cell-based, human
# Method: 300 ng/ml Noggin was added in step 4 and 10 uM ALK5i was added in step 5. In the final step, cells were transferred from transwell to suspension culture (in low attachment wells or flasks). […]
# Warfarin was added at stage 6.
# [1] = tested on: iPS derived beta-cell clusters; assay: Response of iPS derived beta-cell clusters to tolbutamide; type: cell-based, human
# Method: Experiments were conducted to determine the effect of shipping induced islet cells on Transwells. Cells were differentiated according to the protocol described in Example 15. (ProgenMixIII). Total differentiation time was 27 days and the final product was islet-like-clusters (ILCs) in suspension. On the day of shipment, ILCs were counted and divided into individual mouse dosages: one mouse dosage per bottle. Cells were sent by FedEx overnight at 4° C. using cold packs. Leftover ILCs from shipment were used as controls.
# Results are shown in FIGS. 36-42. iPS derived beta-cell clusters responded to glucose challenge and tolbutamide, a KATP channel closer.
# T cell = conditions: high concentrations (1 μg/mL), murine models of T1D; cited from earlier work
# NKX6.1 expression = assay: EGF at stage 5 of differentiation, NKX6.1 expression; type: cell-based, human; conditions: Ten to fifty ng/ml EGF at stage 5
# Method: EGF was added at stage 5.
compound,measurement,setting,value
CC(=O)CC(c1ccccc1)c1c(O)c2ccccc2oc1=O (stereo not drawn) [Warfarin],SI (stimulation index) in GSIS test,differentiated cells; 2 uM Warfarin in stage 6,3.0
same,SI (stimulation index) in GSIS test,differentiated cells; 5 uM Warfarin in stage 6,3.8
same,stimulation index in GSIS test,differentiated cells; warfarin in the final media,significantly increased
CCCCNC(=O)NS(=O)(=O)c1ccc(C)cc1 [tolbutamide],"response to tolbutamide, a KATP channel closer",[1],responded
"CXCL12: immune modulating chemokine, T-cell chemorepellent",action on T cells,T cell,T cell chemorepellent
EGF: growth factor added at stage 5 of differentiation,NKX6.1 expression at end,NKX6.1 expression,enhance NKX6.1 expression
